Read-outs that look alike come from different tables or passages of the source.
Tests used:
[1] = system: Ba/F3 cells expressing EGFR mutations; experiment: Cell proliferation assay, Ba/F3 cells expressing EGFR mutations (CellTiter-Glo, 72 hours); type: cell-based; conditions: Mus musculus, BaF3, 72 h, CellTiter-Glo
In short: (§1)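 GI50 is the concentration giving 50% proliferation inhibition. Growth for this was normalised to a baseline viability reading taken when compound was added, and to DMSO wells. PC-9 (500 cells/well) and mutant-EGFR Ba/F3 (5000 cells/well) are treated after overnight seeding in RPMI1640-based medium.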

[2] = molecular target: T1, EGFR Exon19Del/T790M (Homo sapiens, UniProt P00533, DEL746-750/T790M); experiment: Inhibition of EGFR Exon19Del/T790M biochemical enzymatic activity (HTRF); conditions: EGFR Del19-T790M, 1 mM ATP, 1 h, room temperature, read-out: IC50 (nM) @Del19-T790M
T1 construct: purchased Carna Bio
T1 sequence (P00533 with tags, fused parts or gaps DEL746-750/T790M limits assumed): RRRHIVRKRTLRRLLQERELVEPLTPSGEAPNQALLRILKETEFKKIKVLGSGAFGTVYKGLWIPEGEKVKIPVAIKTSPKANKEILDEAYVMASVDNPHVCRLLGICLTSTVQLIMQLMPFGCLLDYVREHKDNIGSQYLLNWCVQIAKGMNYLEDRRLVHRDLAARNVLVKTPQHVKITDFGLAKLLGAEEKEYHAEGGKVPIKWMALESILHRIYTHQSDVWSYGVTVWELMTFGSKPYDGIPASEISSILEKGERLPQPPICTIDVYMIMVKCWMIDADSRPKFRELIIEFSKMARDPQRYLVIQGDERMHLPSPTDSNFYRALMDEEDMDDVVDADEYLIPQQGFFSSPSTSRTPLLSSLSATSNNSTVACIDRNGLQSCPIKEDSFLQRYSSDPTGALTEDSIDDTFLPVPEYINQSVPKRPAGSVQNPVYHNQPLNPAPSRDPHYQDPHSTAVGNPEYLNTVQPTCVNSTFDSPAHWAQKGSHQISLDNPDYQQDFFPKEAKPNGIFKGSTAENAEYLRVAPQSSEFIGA
In short: (§2)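 Enzyme preincubated with compound, then ATP (1 mM) and TK substrate-biotin (1 μM) added; 1 h RT; stopped with EDTA-containing detection mix; HTRF read (ex 320, em 615/665 nm); IC50 by 4-parameter logistic fit.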

[3] = molecular target: T2, EGFR (C797S L858R) (Homo sapiens, UniProt P00533, C797S/L858R); experiment: Inhibition of EGFR (C797S L858R) biochemical enzymatic activity (HTRF); conditions: EGFR L858-C797S, 1 mM ATP, 1 h, room temperature, read-out: IC50 (nM) @L858-C797S
T2 construct: purchased signalchem
T2 sequence (P00533 25-1210 C797S/L858R): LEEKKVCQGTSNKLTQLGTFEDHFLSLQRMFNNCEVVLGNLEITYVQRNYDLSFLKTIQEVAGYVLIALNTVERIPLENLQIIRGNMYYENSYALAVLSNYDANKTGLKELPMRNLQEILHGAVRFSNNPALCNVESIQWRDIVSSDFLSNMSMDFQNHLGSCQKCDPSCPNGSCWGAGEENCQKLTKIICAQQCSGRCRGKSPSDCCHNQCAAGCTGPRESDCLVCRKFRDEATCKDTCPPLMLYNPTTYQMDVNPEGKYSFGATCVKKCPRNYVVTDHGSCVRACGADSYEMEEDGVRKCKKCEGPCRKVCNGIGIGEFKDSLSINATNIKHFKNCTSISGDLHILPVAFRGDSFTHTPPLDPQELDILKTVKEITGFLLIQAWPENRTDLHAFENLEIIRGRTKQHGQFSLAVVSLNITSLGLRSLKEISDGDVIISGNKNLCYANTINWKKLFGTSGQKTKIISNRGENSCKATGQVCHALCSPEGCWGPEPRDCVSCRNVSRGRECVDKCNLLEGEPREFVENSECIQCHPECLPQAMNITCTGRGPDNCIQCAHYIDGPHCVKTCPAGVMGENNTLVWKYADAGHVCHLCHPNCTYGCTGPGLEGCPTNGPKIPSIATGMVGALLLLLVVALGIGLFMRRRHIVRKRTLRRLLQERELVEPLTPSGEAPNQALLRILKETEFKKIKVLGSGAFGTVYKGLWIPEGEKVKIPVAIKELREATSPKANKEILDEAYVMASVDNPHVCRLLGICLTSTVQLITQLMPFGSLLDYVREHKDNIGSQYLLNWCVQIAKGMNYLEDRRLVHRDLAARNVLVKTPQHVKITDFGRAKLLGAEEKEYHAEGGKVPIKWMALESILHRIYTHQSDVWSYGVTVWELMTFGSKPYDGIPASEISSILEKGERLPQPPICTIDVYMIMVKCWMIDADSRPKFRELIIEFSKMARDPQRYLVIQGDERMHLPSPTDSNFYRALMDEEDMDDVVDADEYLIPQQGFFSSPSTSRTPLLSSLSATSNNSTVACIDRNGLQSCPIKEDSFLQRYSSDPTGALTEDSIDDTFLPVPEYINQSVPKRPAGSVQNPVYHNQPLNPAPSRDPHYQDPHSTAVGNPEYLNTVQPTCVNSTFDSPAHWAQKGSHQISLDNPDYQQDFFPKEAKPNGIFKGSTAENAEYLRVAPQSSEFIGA
In short: as §2

[4] = molecular target: T3, EGFR L858R/T790M (Homo sapiens, UniProt P00533, L858R/T790M); experiment: Inhibition of EGFR L858R/T790M biochemical enzymatic activity (HTRF); conditions: EGFR L858R-T790M, 1 mM ATP, 1 h, room temperature, read-out: IC50 (nM) @L858R-T790M
T3 construct: purchased Carna Bio
T3 sequence (P00533 25-1210 T790M/L858R): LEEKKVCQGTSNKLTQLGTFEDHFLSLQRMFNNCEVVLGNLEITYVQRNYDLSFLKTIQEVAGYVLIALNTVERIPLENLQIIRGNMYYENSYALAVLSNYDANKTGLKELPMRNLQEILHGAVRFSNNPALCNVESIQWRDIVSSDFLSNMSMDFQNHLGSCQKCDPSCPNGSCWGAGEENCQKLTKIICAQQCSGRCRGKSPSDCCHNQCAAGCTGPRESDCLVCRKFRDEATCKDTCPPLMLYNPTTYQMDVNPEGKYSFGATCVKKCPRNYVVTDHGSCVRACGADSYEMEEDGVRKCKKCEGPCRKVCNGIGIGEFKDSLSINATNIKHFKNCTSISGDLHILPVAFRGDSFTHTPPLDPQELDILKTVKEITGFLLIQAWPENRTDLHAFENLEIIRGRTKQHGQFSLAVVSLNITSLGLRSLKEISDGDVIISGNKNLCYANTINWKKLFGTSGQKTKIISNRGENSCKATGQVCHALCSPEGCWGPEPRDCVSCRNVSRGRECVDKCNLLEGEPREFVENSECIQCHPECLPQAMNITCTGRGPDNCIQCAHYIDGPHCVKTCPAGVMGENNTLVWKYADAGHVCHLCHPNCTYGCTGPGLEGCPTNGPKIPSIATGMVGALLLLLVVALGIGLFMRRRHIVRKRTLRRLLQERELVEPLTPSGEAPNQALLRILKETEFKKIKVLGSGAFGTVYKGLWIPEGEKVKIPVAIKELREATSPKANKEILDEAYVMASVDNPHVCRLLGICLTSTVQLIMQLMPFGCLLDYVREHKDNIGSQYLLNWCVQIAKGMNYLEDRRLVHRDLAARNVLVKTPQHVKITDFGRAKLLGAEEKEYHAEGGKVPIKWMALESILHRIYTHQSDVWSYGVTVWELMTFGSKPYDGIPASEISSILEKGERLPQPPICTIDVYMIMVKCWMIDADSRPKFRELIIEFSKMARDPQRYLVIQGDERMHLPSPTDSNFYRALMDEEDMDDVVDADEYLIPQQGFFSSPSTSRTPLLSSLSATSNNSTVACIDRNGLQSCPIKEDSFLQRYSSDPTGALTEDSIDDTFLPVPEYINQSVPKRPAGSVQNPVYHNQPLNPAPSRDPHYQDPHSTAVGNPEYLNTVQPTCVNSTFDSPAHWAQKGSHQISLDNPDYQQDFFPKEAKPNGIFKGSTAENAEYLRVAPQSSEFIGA
In short: as §2

[5] = molecular target: T4, EGFR Exon19Del (Homo sapiens, UniProt P00533, DEL746-750); experiment: Inhibition of EGFR Exon19Del biochemical enzymatic activity (HTRF); conditions: EGFR Del19, 1 mM ATP, 1 h, room temperature, read-out: IC50 @Del19
T4 construct: purchased Carna Bio
T4 sequence (P00533 with tags, fused parts or gaps DEL746-750 limits assumed): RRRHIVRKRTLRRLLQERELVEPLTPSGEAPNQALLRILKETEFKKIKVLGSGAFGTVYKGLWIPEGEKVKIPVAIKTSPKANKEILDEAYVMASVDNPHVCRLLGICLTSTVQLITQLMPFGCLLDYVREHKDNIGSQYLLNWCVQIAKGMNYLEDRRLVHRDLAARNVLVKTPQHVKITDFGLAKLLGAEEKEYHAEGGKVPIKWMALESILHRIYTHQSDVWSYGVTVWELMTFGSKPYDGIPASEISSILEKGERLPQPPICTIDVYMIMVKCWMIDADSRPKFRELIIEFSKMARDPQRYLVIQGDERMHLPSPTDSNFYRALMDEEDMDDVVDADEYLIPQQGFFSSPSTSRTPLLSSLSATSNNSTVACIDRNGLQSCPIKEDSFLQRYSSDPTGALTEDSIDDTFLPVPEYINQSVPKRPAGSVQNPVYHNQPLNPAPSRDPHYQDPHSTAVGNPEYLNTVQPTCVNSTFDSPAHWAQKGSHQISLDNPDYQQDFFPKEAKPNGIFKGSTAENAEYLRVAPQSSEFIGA
In short: as §2

[6] = molecular target: T5, EGFR[T790M/C797S/d746-750] (Homo sapiens, UniProt P00533, C797S/DEL746-750/T790M); experiment: Inhibition of EGFR[T790M/C797S/d746-750] biochemical enzymatic activity (HTRF); conditions: EGFR T790M-C797S-Del19, 1 mM ATP, 1 h, room temperature, read-out: IC50 (nM) @T790M - C797S - Del19
T5 construct: purchased Carna Bio
In short: as §2

[7] = molecular target: T6, EGFR[T790M/C797S/L858R] (Homo sapiens, UniProt P00533, C797S/L858R/T790M); experiment: Inhibition of EGFR[T790M/C797S/L858R] biochemical enzymatic activity (HTRF); conditions: EGFR T790M-C797S-L858R, 1 mM ATP, 1 h, room temperature, read-out: IC50 (nM) @T790M- C797S - L858R
T6 construct: purchased Carna Bio
In short: as §2

[8] = molecular target: T7, EGFR (d746-750 C797S) (Homo sapiens, UniProt P00533, C797S/DEL746-750); experiment: Inhibition of EGFR (d746-750 C797S) biochemical enzymatic activity (HTRF); conditions: EGFR Del19-C797S, 1 mM ATP, 1 h, room temperature, read-out: IC50 (nM) @Del19-C797S
T7 construct: purchased signalchem
In short: as §2

[9] = system: A-431; experiment: Cell proliferation GI50, A-431 cells (Table 6); type: cell-based; conditions: Homo sapiens, A-431, A-431 cells
[10] = molecular target: T8, EGFR wild type (Homo sapiens, UniProt P00533); experiment: Inhibition of EGFR wild type biochemical enzymatic activity (HTRF); conditions: EGFR WT, 1 mM ATP, 1 h, room temperature, read-out: IC50 (nM) @WT
T8 construct: purchased Carna Bio
In short: as §2

[11] = system: PC-9; experiment: Cell proliferation assay, PC-9 cells (CellTiter-Glo, 72 hours); type: cell-based; conditions: Homo sapiens, PC-9, 72 h, PC9 cells, CellTiter-Glo, read-out: PC9 GI50
In short: as §1

[12] = molecular target: T9, EGFR L858R (Homo sapiens, UniProt P00533, L858R); experiment: Inhibition of EGFR L858R biochemical enzymatic activity (HTRF); conditions: 1 mM ATP, 1 h, room temperature, read-out: IC50 (nM) @L858R
T9 construct: purchased Carna Bio
T9 sequence (P00533 25-1210 L858R): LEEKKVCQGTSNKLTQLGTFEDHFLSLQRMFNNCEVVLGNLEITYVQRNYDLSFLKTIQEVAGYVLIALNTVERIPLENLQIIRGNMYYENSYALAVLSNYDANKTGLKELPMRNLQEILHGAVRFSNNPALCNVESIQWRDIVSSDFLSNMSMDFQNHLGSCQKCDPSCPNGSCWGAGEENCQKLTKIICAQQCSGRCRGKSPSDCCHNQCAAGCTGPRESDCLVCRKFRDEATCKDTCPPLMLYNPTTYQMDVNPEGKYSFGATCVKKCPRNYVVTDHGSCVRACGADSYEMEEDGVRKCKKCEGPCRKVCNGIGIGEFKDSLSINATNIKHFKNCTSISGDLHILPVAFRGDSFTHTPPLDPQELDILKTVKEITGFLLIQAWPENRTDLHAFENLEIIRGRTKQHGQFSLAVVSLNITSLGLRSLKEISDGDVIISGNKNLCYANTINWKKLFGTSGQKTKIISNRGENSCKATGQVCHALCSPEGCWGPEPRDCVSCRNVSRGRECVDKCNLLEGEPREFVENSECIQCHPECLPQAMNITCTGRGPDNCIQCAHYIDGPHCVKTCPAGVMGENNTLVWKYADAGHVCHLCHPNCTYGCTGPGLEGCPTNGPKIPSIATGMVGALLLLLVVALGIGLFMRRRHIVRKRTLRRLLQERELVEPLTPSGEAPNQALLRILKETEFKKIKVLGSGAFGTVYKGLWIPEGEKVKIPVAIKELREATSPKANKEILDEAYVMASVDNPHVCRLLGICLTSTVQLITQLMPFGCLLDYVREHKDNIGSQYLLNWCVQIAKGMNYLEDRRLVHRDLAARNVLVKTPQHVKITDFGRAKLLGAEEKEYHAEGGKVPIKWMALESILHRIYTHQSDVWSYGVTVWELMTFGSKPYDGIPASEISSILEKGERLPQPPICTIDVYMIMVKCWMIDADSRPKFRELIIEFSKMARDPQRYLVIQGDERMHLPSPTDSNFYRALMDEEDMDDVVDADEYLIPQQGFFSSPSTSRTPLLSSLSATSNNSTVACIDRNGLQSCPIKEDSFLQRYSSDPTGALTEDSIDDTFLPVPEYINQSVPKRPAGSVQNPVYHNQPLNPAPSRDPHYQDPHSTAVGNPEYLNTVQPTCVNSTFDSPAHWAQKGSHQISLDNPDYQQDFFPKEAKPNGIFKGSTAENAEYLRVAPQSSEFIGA
In short: as §2

[13] = BaF3 cells, EGFR DEL19-C797S, read-out: DEL19-C797S/BaF3 GI50
[14] = BaF3 cells, EGFR DEL19-T790-C797S, read-out: DEL19-T790-C797S/BaF3 GI50
[15] = BaF3 cells, EGFR L858R, read-out: L858R/BaF3 GI50
[16] = BaF3 cells, EGFR L858R-C797S, read-out: L858R-C797S/BaF3 GI50
[17] = BaF3 cells, EGFR L858R-T790-C797S, read-out: L858R-T790-C797S/BaF3 GI50
[18] = BaF3 cells, EGFR L858R-T790M, read-out: L858R-T790M/BaF3 GI50
[19] = EGFR DEL19-T790M, read-out: DEL19-T790M GI50

Row | SMILES | GI50 [1, 13] [nM] | GI50 [1, 14] [nM] | GI50 [1, 15] [nM] | GI50 [1, 16] [nM] | GI50 [1, 17] [nM] | GI50 [1, 18] [nM] | GI50 [1, 19] [nM] | IC50 [2] [nM] | IC50 [3] [nM] | IC50 [4] [nM] | IC50 [5] [nM] | IC50 [6] [nM] | IC50 [7] [nM] | IC50 [8] [nM] | GI50 [9] [nM] | IC50 [10] [nM] | GI50 [11] [nM] | IC50 [12] [nM]
1 | C[C@@H]1CCCOc2c(cnn2C)-c2cc(cn(C)c2=O)C(=O)Nc2nc3ccc(N4CCN(C5CC5)CC4)cc3n2C1 [Example A48] | 9.4 | 48 | 20 | 26 | 21 | 94 | 53 | 2.8 | 28 | 5 | 3.1 | 3.1 | 4.4 | 2.1 | 573 | 2250 | 38 | 40
2 | CCN1CCN(c2ccc3nc4n(c3c2)C[C@H](C)CCCOc2c(cnn2C)-c2cc(cn(C)c2=O)C(=O)N4)CC1 [Example A49] | 2 | 12 | 5.7 | 7 | 5.3 | 72 | 18 | 6 | 16 | 8.1 | 5.5 | 4.9 | 5.1 | 2.8 | 251 | 694 | 12 | 45
3 | CC(C)N1CCN(c2ccc3nc4n(c3c2)C[C@H](C)CCCOc2c(cnn2C)-c2cc(cn(C)c2=O)C(=O)N4)CC1 [Example A50] | 1 | 5.3 | 2.7 | 2.4 | 1.9 | 9.5 | 7.5 | 3.8 | 7.4 | 6.7 | 2.4 | 4 | 4.8 | 1.8 | 126 | 124 | 6.3 | 15
4 | C[C@@H]1CCCOc2c(cnn2C)-c2cc(cn(C)c2=O)C(=O)Nc2nc3ccc(N4CCC(N(C)C)C(F)(F)C4)cc3n2C1 (stereo partly drawn) [Example A51] | 7.6 | 35 | 46 | 38 | 36 | 65 | 65 | 12 | 31 | 33 | 13 | 12 | 24 | 4.7 | 1040 | 1830 | 62 | 94
5 | C[C@@H]1CCCOc2c(cnn2C)-c2cc(cn(C)c2=O)C(=O)Nc2nc3ccc(N4CCC5(CC4)CCN5C)cc3n2C1 [Example A52] | 1.3 | 6.3 | 8.1 | 8.4 | 9.6 | 13.1 | 9.6 | 3.5 | 4.7 | 6.6 | 1.3 | 3.4 | 3.9 | 1.4 | 480 | 54 | 15.4 | 6.3
6 | C[C@@H]1CCCOc2c(cnn2C)-c2cc(cn(C)c2=O)C(=O)Nc2nc3ccc(N4CCN(CC(F)(F)F)CC4)cc3n2C1 [Example A53] | 7.4 | 27 | 28 | 34 | 35 | 51 | 49 | 12 | 135 | 70 | 15 | 13 | 21 | 7.2 | 639 | > 5000 | 51 | 462
7 | C[C@@H]1CCCOc2c(cnn2C)-c2cc(cn(C)c2=O)C(=O)Nc2nc3ccc(N4CCN(C(=O)OC(C)(C)C)CC4)cc3n2C1 [Example A54] | 32 | 104 | 192 | 188 | 228 | 288 | 153 | 31 | 887 | 213 | 118 | 31 | 10 | 41 | 1910 | > 5000 | 245 | 3040
8 | C[C@@H]1CCCOc2c(cnn2C)-c2cc(cn(C)c2=O)C(=O)Nc2nc3ccc(N4CCNCC4)cc3n2C1 [Example A55] | 4.6 | 25 | 26 | 31 | 29 | 52 | 36 | 3.7 | 8.4 | 8.4 | 3.7 | 4.4 | 7.2 | 1.8 | 1280 | 103 | 51 | 16
9 | C[C@@H]1CCCOc2c(cnn2C)-c2cc(cn(C)c2=O)C(=O)Nc2nc3ccc(N4CC5(CCN(C)CC5(F)F)C4)cc3n2C1 [Example A56] | 3.4 | 11 | 12 | 12 | 10 | 26 | 17 | 17 | 22 | 32 | 9.1 | 16 | 19 | 5.5 | 436 | 501 | 52 | 35
10 | C[C@@H]1CCCNc2c(cnn2C)-c2cc(cn(C)c2=O)C(=O)Nc2nc3ccc(N4CCN(C)CC4)cc3n2C1 [Example A57] | 64 | 534 | 790 | 474 | 716 | 356 | 612 | 112 | 2650 | 4530 | 189 | 65 | > 5000 | 175 | 8300 | > 5000 | 194 | > 5000
11 | C[C@@H]1CCCOc2c(cnn2C)-c2cc(cn(C)c2=O)C(=O)Nc2nc3ccc(N4CC(F)(CN(C)C)C4)cc3n2C1 [Example A58] | 2 | 28 | 29 | 20 | 37 | 20 | 20 | 16 | 19 | 34 | 9.2 | 15 | 22 | 4.9 | 1750 | 220 | 325 | 26
